{"source": "patent US9149536B2", "about": "“Conjugated antimicrobial agents” (priority 2009, dated 2015)", "key": {"[1]": {"tested_on": "E. coli R477-100", "assay": "MIC, double-microdilution, E. coli R477-100", "format": "cell-based, Escherichia coli", "settings": "Escherichia coli, R477100, read-out: MIC E. coli R477-100"}, "[2]": {"target": "E. coli DNA gyrase (Escherichia coli, UniProt P0AES4+P0AES6)", "sequence (P0AES4 whole entry, one chain of several)": "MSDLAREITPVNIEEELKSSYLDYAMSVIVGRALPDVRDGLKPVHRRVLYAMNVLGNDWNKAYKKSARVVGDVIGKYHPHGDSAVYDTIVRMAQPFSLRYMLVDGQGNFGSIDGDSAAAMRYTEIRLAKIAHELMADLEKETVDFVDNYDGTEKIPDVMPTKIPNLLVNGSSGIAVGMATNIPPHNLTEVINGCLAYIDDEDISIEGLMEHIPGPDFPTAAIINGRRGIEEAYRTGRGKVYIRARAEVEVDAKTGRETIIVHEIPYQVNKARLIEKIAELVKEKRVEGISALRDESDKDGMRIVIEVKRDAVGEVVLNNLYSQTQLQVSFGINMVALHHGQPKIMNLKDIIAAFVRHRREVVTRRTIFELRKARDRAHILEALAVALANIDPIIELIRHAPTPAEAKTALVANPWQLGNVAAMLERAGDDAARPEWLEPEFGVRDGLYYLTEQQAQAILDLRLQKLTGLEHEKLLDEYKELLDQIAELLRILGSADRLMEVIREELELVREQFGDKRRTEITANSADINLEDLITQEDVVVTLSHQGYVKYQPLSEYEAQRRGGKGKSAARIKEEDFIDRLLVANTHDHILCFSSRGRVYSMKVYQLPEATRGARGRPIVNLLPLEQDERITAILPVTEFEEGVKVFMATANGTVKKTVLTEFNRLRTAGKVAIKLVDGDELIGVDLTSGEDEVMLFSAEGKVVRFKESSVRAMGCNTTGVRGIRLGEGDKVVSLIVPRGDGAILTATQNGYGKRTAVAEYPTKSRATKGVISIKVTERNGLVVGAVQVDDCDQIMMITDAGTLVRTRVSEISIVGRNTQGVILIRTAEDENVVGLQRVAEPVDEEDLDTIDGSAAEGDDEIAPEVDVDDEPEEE", "settings": "supercoiling assay, relaxed pBR322"}, "[3]": {"tested_on": "B. subtilis ATCC 6633", "assay": "microbe, parasite or virus in culture", "format": "cell-based", "settings": "for MIC: Bacillus subtilis", "experimental": "(§1) In parallel, MIC evolution during these subcultures was compared concomitantly with each new generation, using bacteria harvested from control wells (wells cultured without antimicrobial agent from the previous generation). The relative MIC was calculated for each experiment from the ratio of MIC obtained for a given subculture to that obtained for first-time exposure."}, "[4]": {"tested_on": "E. coli ATCC 35218", "assay": "microbe, parasite or virus in culture", "format": "cell-based", "settings": "for MIC: Escherichia coli", "experimental": "as §1"}, "[5]": {"tested_on": "E. coli XL1 blue/pET9d", "assay": "microbe, parasite or virus in culture", "format": "cell-based", "experimental": "(§2) For this purpose, exemplary conjugates, according to some embodiments of the present invention, were tested against five isogenic E. coli strains. E. coli (pSF815) and E. coli (pET9d) are laboratory resistant strains derived by transformation of E. coli XL1 blue (background strain) with the pSF815 and pET9d plasmids, respectively. […] The last two isogenic strains used were E. coli BL21 (background strain) and E. coli (pETSACG1). […] These three enzymes are among the most prevalent modes of resistance found in aminoglycosides resistance strains.\n(§3) The MIC ratios were calculated by dividing the MIC value against resistant strain to that against the respective background strain."}, "[6]": {"tested_on": "E. coli BL21", "assay": "microbe, parasite or virus in culture", "format": "cell-based", "settings": "Escherichia coli, BL21; background strain", "experimental": "as §2, §3"}, "[7]": {"tested_on": "E. coli XL1 blue/pSF815", "assay": "microbe, parasite or virus in culture", "format": "cell-based", "settings": "Escherichia coli, XL1BLUE/PSF815, read-out: MIC XL1 blue/pSF815", "experimental": "as §2, §3"}, "[8]": {"tested_on": "E. coli XL1 blue", "assay": "microbe, parasite or virus in culture", "format": "cell-based", "settings": "Escherichia coli, XL1BLUE; background strain; read-out: MIC XL1 blue", "experimental": "as §2, §3"}, "[9]": {"tested_on": "E. coli BL21/pETSACG1", "assay": "microbe, parasite or virus in culture", "format": "cell-based", "experimental": "as §2, §3"}, "[10]": {"tested_on": "B. subtilis ATCC 6633", "assay": "MIC, double-microdilution, B. subtilis ATCC 6633", "format": "cell-based", "settings": "Bacillus subtilis, ATCC6633; Table 4; read-out: MIC B. subtilis ATCC 6633"}, "[11]": {"tested_on": "E. coli ATCC 25922", "assay": "MIC, double-microdilution, E. coli ATCC 25922", "format": "cell-based, Escherichia coli", "settings": "Escherichia coli, ATCC25922; Table 4; read-out: MIC E. coli ATCC 25922"}, "[12]": {"target": "T1, E. coli TopoIV (Escherichia coli, UniProt P0AFI2+P20083)", "T1 construct": "purchased Inspiralis Ltd", "T1 sequence (P0AFI2 whole entry)": "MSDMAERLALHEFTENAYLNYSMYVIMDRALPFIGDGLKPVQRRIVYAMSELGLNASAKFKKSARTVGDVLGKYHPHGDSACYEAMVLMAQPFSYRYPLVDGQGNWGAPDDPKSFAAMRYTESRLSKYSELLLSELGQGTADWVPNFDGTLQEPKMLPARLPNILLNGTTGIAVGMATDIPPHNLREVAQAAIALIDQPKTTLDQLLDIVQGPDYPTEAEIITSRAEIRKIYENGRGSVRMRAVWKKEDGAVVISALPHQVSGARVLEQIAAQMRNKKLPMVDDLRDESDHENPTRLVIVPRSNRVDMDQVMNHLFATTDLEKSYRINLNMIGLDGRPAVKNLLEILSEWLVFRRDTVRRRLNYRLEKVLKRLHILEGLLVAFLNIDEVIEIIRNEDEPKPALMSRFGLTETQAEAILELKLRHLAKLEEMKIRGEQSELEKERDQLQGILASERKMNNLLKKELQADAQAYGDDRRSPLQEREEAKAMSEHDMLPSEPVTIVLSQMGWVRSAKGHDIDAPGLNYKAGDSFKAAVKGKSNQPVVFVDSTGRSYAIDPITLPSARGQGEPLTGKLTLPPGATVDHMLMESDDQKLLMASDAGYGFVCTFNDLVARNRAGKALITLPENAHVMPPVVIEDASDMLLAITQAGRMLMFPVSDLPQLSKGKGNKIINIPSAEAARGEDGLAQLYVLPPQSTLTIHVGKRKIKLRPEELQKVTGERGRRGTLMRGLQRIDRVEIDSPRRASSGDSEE", "T1 sequence (P20083 whole entry)": "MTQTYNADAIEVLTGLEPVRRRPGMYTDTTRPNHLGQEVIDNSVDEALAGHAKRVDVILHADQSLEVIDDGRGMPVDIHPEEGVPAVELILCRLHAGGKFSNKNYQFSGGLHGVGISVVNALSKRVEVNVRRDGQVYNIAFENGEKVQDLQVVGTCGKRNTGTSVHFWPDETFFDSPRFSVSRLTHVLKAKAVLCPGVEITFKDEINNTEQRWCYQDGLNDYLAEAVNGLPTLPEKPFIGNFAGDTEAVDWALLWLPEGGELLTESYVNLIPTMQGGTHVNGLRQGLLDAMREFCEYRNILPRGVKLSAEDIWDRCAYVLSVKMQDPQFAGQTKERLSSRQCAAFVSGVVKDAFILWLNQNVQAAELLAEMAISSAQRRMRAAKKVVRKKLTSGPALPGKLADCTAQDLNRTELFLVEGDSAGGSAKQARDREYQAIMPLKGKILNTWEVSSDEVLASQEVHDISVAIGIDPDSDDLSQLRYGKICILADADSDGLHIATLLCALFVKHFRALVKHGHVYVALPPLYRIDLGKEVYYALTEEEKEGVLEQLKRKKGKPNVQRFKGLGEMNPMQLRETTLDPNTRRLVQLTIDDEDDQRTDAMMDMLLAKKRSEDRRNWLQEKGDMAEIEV", "assay": "TopoIV relaxation assay", "format": "biochemical", "settings": "relaxation assay, supercoiled pBR322", "experimental": "DNA relaxation activity was assayed with supercoiled pBR322 DNA as a substrate (Inspiralis Ltd) according to the manufacturer's protocol. The standard reaction mixture (20 μl) contained 40 mM HEPES-KOH pH 7.6, 100 mM potassium glutamate, 10 mM Mg(OAc)2, 10 mM dithiothreitol, 1 mM ATP, 50 μg/ml albumin, 5 ng/μl […] pBR322, and TopoIV protein. The reaction mixture was incubated at 37° C. for 30 minutes, and then was terminated by addition of 2 μl 0.5 M EDTA, 3.5 μl loading dye and 20 μl chloroform/isoamyl alcohol (24:1) mixture. […] One unit of relaxation activity was defined as the amount of TopoIV required to relax 0.1 μg of plasmid in 30 minutes.\n(§4) Relaxation assays were conducted with E. coli TopoIV."}, "[13]": {"tested_on": "E. coli AG100A", "assay": "MIC, double-microdilution, E. coli AG100A", "format": "cell-based, Escherichia coli", "settings": "Escherichia coli, AG100A, read-out: MIC E. coli AG100A, Table 4; kanamycin resistant, APH(3′)-I"}, "[14]": {"tested_on": "E. coli AG100B", "assay": "MIC, double-microdilution, E. coli AG100B", "format": "cell-based, Escherichia coli", "settings": "Escherichia coli, AG100B, read-out: MIC E. coli AG100B, Table 4; kanamycin resistant, APH(3′)-I", "text": "AG100B and AG100A are two kanamycin resistant Escherichia coli strains expressing APH(3′)-I aminoglycoside resistance enzyme."}, "[15]": {"tested_on": "MRSA ATCC 43300", "assay": "microbe, parasite or virus in culture", "format": "cell-based, S. aureus", "settings": "Staphylococcus aureus, read-out: MIC MRSA ATCC 43300"}, "[16]": {"target": "T2, APH(3′)-IIIa enzyme (Enterococcus faecalis, UniProt P0A3Y5)", "T2 construct": "made in house; host or cells: E. coli BL21 carrying pETSACG1 (inferred)", "T2 sequence (P0A3Y5 whole entry)": "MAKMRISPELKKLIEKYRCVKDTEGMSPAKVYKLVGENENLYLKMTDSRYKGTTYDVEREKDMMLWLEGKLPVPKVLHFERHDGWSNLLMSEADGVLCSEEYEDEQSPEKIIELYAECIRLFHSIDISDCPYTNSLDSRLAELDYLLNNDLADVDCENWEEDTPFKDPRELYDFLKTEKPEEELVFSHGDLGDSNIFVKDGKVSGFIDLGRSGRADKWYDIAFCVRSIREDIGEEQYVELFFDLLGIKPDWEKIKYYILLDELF", "format": "biochemical", "settings": "compound as substrate of APH(3′)-IIIa"}, "[17]": {"tested_on": "bacterial protein synthesis", "assay": "In vitro coupled transcription/translation assay, E. coli S30 extract", "format": "biochemical", "settings": "luciferase readout", "experimental": "Protein translation inhibition by the different compounds was quantified in a coupled transcription/translation assay by using E. coli S30 extracts for circular DNA with the pBEST/uc plasmid (Promega), according to the manufacturer's protocol.\nTranslation reactions (25 μl) that contained variable concentrations of the tested compound were incubated at 37° C. for 60 minutes, cooled on ice for 5 minutes, and diluted with a dilution reagent (tris-phosphate buffer (25 mM, pH 7.8), DTT (2 mM), 1,2-diaminocyclohexanetetraacetate (2 mM), glycerol (10%), Triton X-100 (1%) and BSA (1 mg/ml)) into 96-well plates. The luminescence was measured immediately after the addition of the Luciferase Assay Reagent (50 μl; Promega), and the light emission was recorded with a Victor3™ Plate Reader (Perkin-Elmer). The concentration of half-maximal inhibition (IC50) was obtained from fitting concentration-response curves to the data of at least two independent experiments by using Grafit 5 software (Leatherbarrow, R. J. Erithacus Software Ltd: Horley, U.K., 2001).\nas §4"}, "[18]": {"settings": "MIC of subculture to MIC upon first exposure"}, "[19]": {"settings": "MIC resistant strain divided by MIC background strain"}}, "note": "Read-outs that look alike come from different tables or passages of the source.", "data": [{"smiles": "NC[C@@H]1O[C@H](O[C@H]2[C@@H](O)[C@H](O[C@@H]3[C@@H](O)[C@H](N)C[C@H](N)[C@H]3O[C@H]3O[C@H](CN)[C@@H](O)[C@H](O)[C@H]3N)O[C@@H]2CO)[C@H](N)[C@@H](O)[C@@H]1O", "note": "[NeoB, neomycin B, reference compound]", "values": [{"measurement": "MIC", "setting": "[1]", "value": 24, "unit": "µg/mL"}, {"measurement": "DNA gyrase IC50", "setting": "[2]", "value": "inactive"}, {"measurement": "MIC", "setting": "[3]; ATCC6633, read-out: MIC 1st passage, B.subtilis ATCC 6633", "value": 0.75, "unit": "µg/mL"}, {"measurement": "MIC", "setting": "[3]; ATCC6633, read-out: MIC 15th passage, B.subtilis ATCC 6633", "value": 6, "unit": "µg/mL"}, {"measurement": "Ratio (relative MIC) 15th/1st passage, B.subtilis ATCC 6633", "setting": "[3]; [18]", "value": 8}, {"measurement": "MIC", "setting": "[4]; ATCC35218, read-out: MIC 1st passage, E.coli ATCC 35218", "value": 12, "unit": "µg/mL"}, {"measurement": "MIC", "setting": "[4]; ATCC35218, read-out: MIC 15th passage, E.coli ATCC 35218", "value": 48, "unit": "µg/mL"}, {"measurement": "Ratio (relative MIC) 15th/1st passage, E.coli ATCC 35218", "setting": "[4]; [18]", "value": 4}, {"measurement": "MIC", "setting": "[5]; Escherichia coli, XL1BLUE/PET9D, read-out: MIC XL1 blue/pET9d", "value": 96, "unit": "µg/mL"}, {"measurement": "MIC ratio XL1 blue/pET9d to XL1 blue", "setting": "[5]; [19]", "value": 16}, {"measurement": "MIC", "setting": "[6]", "value": 6, "unit": "µg/mL"}, {"measurement": "MIC", "setting": "[7]", "value": "> 384", "unit": "µg/mL"}, {"measurement": "MIC", "setting": "[8]", "value": 6, "unit": "µg/mL"}, {"measurement": "MIC", "setting": "[9]; Escherichia coli, BL21/PETSACG1, read-out: MIC BL21/pETSACG1", "value": 48, "unit": "µg/mL"}, {"measurement": "MIC ratio BL21/pETSACG1 to BL21", "setting": "[9]; [19]", "value": 8}, {"measurement": "MIC", "setting": "[10]", "value": 1.5, "unit": "µg/mL"}, {"measurement": "MIC", "setting": "[11]", "value": 48, "unit": "µg/mL"}, {"measurement": "TopoIV IC50", "setting": "[12]", "value": "inactive"}, {"measurement": "MIC", "setting": "[13]", "value": 96, "unit": "µg/mL"}, {"measurement": "MIC", "setting": "[14]", "value": 384, "unit": "µg/mL"}, {"measurement": "MIC", "setting": "[15]", "value": 384, "unit": "µg/mL"}, {"measurement": "kcat", "setting": "[16]", "value": "2.4 ± 0.1", "unit": "s⁻¹"}, {"measurement": "IC50", "setting": "[17]", "value": "10.5 ± 0.1", "unit": "µM"}]}]}
